Test results taken from patent US7022695B2, “Thioether-substituted benzamides as inhibitors of Factor Xa” (Millennium Pharmaceuticals, Inc., priority 2003, dated 2006).

Target: T1, human plasma protein factor Xa (Homo sapiens, UniProt P00742)
T1 construct: The human plasma protein factor Xa was purchased from Haematologic Technologies; purchased Haematologic Technologies (Essex Junction, Vt.); host or cells: human plasma
Experiment: Factor Xa Ki determination (cleavage of chromogenic substrate S-2765)
Format: biochemical
Conditions: fXa 1 nM, S-2765 200 μM, pH 7.4
Experimental: Protocol for Assay of Factor Xa Inhibitors
The substrate S-2765 (Z-D-Arg-Gly-Arg-pNA.HCl) was obtained from Diapharma (West Chester, Ohio).
The human plasma protein factor Xa was purchased from Haematologic Technologies (Essex Junction, Vt.).
The assay buffer for this series of assays was: Hepes buffered saline (20 mM Hepes, 150 mM NaCl, 5 mM CaCl2, 0.1% PEG-8000, pH 7.4). In a 96-well microtiter plate, inhibitor was serially diluted in a duplicate set of wells to give a range of final concentrations from 5 pM to 3 μM final. Controls without inhibitor (8 wells) were included. The enzyme, fXa (1 nM final) was added to the wells. The substrate S-2765 (200 μM final) was added and the degree of substrate hydrolysis was measured at 405 nm on a Thermomax plate reader for 5 minutes, using Softmax software. Initial velocities (mOD/min) were analyzed by non-linear least squares regression in the Plate Ki software (BioKin Ltd, Pullman, Wash.)(Literature reference: Kusmic P, et al., “High-throughput screening of enzyme inhibitors: Automatic determination of tight-binding inhibition constants” Anal. Biochemistry 2000, 281:62–67). The model used for fitting the inhibitor dose-response curves was the Morrison equation. An apparent Ki (Ki*) was determined. The overall Ki was calculated using the following equation: […]

T1 sequence (P00742 235-488 limits assumed): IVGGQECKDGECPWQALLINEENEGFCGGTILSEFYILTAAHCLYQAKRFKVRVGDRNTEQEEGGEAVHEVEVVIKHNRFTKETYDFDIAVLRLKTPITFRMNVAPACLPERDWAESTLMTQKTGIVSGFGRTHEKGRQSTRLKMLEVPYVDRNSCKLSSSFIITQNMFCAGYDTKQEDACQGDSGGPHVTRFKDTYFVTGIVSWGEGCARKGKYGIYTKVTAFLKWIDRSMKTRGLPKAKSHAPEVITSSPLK
T1 sequence (P00742 41-179 partner limits assumed): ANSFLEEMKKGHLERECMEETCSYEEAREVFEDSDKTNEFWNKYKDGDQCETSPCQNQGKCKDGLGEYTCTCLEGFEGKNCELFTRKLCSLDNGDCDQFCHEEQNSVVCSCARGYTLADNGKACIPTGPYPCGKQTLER

Row | Compound | Ki [nM]
1 | CN(C)C(=N)c1ccc(C(=O)Nc2ccc(SCC(=O)N(C)C)cc2C(=O)Nc2ccc(Cl)cn2)cc1 [Example 1, N-(5-chloro-2-pyridinyl)-2-(4-N,N-dimethylamidinophenylcarbonyl)amino-5-acetic acid dimethylamide sulfanyl-phenylcarboxamide] | < 10
2 | CN(C)C(=N)c1ccc(C(=O)Nc2ccc(SCC(=O)N3CCCCC3)cc2C(=O)Nc2ccc(Cl)cn2)cc1 [Example 2] | < 10
3 | CN(C)C(=N)c1ccc(C(=O)Nc2ccc(SCC(=O)N3CCN(C(=O)OC(C)(C)C)CC3)cc2C(=O)Nc2ccc(Cl)cn2)cc1 [Example 3] | < 10
4 | CN(C)C(=O)CSc1ccc(NC(=O)c2ccc(C3=NCCN3C)cc2)c(C(=O)Nc2ccc(Cl)cn2)c1 [Example 4] | < 10
5 | CN1CCN=C1c1ccc(C(=O)Nc2ccc(SCC(N)=O)cc2C(=O)Nc2ccc(Cl)cn2)cc1 [Example 6] | < 10
6 | CNC(=O)CSc1ccc(NC(=O)c2ccc(C3=NCCN3C)cc2)c(C(=O)Nc2ccc(Cl)cn2)c1 [Example 7] | < 10
7 | CN(C)CCSc1ccc(NC(=O)c2ccc(C(=N)N(C)C)cc2)c(C(=O)Nc2ccc(Cl)cn2)c1 [Example 9] | < 10
